Data on 30 compounds can be found in patent US20110039893A1, “GSK-3BETA INHIBITOR” (Takeda Pharmaceutical Company Limited, priority 2006, published 2011).

Each structure is given as a SMILES string.

The assay concerns the target T1, recombinant GSK-3β enzyme (Homo sapiens, UniProt P49841).
T1 construct: FLAG (N); made in house; host or cells: Sf-21 insect cells, recombinant baculovirus (pFASTBAC1, BAC-TO-BAC)
As to the kind of experiment: GSK-3β inhibitory activity evaluation (Kinase Glo luminescence, recombinant enzyme). The class given is biochemical. The note with it: recombinant human GSK-3β 100 ng, glycogen synthase-derived substrate peptide, 2.5 μM ATP solution, 30 min room temperature. The procedure: Human GSK-3β gene was cloned by PCR using human brain cDNA (Clontech; trade name: QUICK-Clone cDNA) as a template and a primer set (GSK3β-U: 5′-[…] CTT-3′ (SEQ ID NO: 1) and GSK3β-L: 5′-[…]-3′ (SEQ ID NO: 2)) prepared by reference to the base sequence of GSK-3β gene registered under an accession No. NM_002093 in the GenBank.
PCR was performed according to the protocol attached to KOD plus DNA polymerase (TOYOBO CO., LTD.). The obtained PCR product was subjected to agarose gel (1%) electrophoresis, and DNA fragment (1.2 kb) containing GSK-3β gene was recovered from the gel, and digested with restriction enzymes EcoR I and Sal I. DNA after treatment with restriction enzymes was subjected to agarose gel (1%) electrophoresis, and the obtained DNA fragment was recovered, and ligated to plasmid pFASTBAC1 (Invitrogen) digested with restriction enzymes EcoR I and Sal I to give expression plasmid pFB-GSK3β. The base sequence of the inserted fragment was confirmed to match the object sequence. Using BAC-TO-BAC Baculovirus Expression System (Invitrogen), virus stock BAC-GSK3β of recombinant Baculovirus was prepared.
Sf-21 cells (Invitrogen) were inoculated to 150 ml Sf-900 II SEM medium (Invitrogen) containing 10% fetal bovine serum to 1×10^6 cells/ml and cultured at 27° C. for 24 hr. To the obtained culture medium was added the virus stock BAC-GSK3β of recombinant Baculovirus obtained above by 150 μl each, and the cells were further cultured for 60 hr. The culture medium was centrifuged (3000 rpm, 10 min) to separate the cells, and the cells were washed once with PBS. The cells were suspended in 10 ml of cell lysis buffer (25 mM HEPES (pH 7.5), 1% Triton X, 130 mM sodium chloride, 1 mM EDTA, 1 mM Dithiothreitol, 25 mM β-glycerophosphate, Protease inhibitor Complete (Boehringer), 1 mM sodium orthovanadate), treated 4 times in a homogenizer (POLYTRON) at 20000 rpm, 30 sec to disrupt the cells. The cell disrupt solution was centrifuged (40000 rpm, 45 min), and GSK-3β was purified from the obtained supernatant using Anti-FLAG M2 Affinity Gel (Sigma Ltd.).
To 37.5 μl of a reaction solution (25 mM HEPES (pH 7.5), 10 mM magnesium acetate, 1 mM DTT, 0.01% bovine serum albumin (Wako Pure Chemical Industries, Ltd.)) containing recombinant GSK-3β enzyme (100 ng) obtained above and substrate peptide ([…]pSEDEEE (SEQ ID NO: 3), pS is phosphorylated serine) (100 ng) derived from glycogen synthase was added a test compound (2.5 μl) dissolved in DMSO, and the mixture was incubated at room temperature for 5 min. To the obtained mixture was added ATP solution (2.5 μM ATP, 10 μl), and the mixture was reacted at room temperature for 30 min. After the reaction, the reaction was quenched by adding 50 μL of Kinase Glo Reagent (Promega) to the reaction solution. After reaction at room temperature for 10 min, the luminescence amount was measured using an ARVO multilabel counter (PerkinElmer Life Sciences). The concentration of the test compound necessary for inhibiting the luminescence amount by 50% (IC50 value) was calculated by PRISM 3.0 (Graphpad software).
Background: In Kinase-Glo more light means more ATP remaining.

T1 sequence (P49841 whole entry): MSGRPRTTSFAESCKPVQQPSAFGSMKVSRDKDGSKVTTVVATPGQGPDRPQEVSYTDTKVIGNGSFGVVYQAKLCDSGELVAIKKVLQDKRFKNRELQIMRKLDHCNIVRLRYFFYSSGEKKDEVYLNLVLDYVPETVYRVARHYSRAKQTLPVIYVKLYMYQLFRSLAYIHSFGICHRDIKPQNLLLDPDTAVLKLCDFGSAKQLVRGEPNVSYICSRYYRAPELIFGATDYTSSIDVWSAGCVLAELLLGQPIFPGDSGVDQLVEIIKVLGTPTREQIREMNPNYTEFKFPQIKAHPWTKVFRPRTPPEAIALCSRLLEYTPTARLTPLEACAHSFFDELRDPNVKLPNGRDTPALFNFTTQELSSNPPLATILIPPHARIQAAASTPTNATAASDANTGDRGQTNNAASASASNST

The IC50 is the concentration needed to halve the response being measured. For `Cc1ccc2c(c1)oc(=O)n2-c1ccnc(NC(=O)NCc2ccccn2)c1` [Example 65, 1-(4-(6-methyl-2-oxo-1,3-benzoxazol-3(2H)-yl)pyridin-2-yl)-3-(pyridin-2-ylmethyl)urea], the IC50 is below 100 nM.
As to `CC1(C)C(=O)N(c2ccnc(NC(=O)NCc3ccccn3)c2)c2cccnc21` [Example 59, N-(4-(3,3-dimethyl-2-oxo-2,3-dihydro-1H-pyrrolo[3,2-b]pyridin-1-yl)pyridin-2-yl)-N′-(pyridin-2-ylmethyl)urea], the IC50 was below 100 nM.
Regarding `O=C(NCc1ccccn1)Nc1cc(N2CC(c3ccccc3)CC2=O)ccn1` (single isomer, unassigned; (-)) [Example 5, (−)-N-(4-(2-oxo-4-phenylpyrrolidin-1-yl)pyridin-2-yl)-N′-(pyridin-2-ylmethyl)urea], the IC50 was below 100 nM.
On to `CC1(c2ccccc2)CN(c2ccnc(NC(=O)NCc3ccccn3)c2)C(=O)O1` (stereo not drawn) [Example 49, N-(4-(5-methyl-2-oxo-5-phenyl-1,3-oxazolidin-3-yl)pyridin-2-yl)-N′-(pyridin-2-ylmethyl)urea], for which the IC50 is below 100 nM.
In the case of `O=C(NCc1ccccn1)Nc1cc(N2CC(c3ccccc3)CC2=O)ccn1` (stereo not drawn) [Example 4, N-(4-(2-oxo-4-phenylpyrrolidin-1-yl)pyridin-2-yl)-N′-(pyridin-2-ylmethyl)urea], the IC50 is below 100 nM.
Regarding `O=C(CCc1ccccn1)Nc1cc(N2CC(c3ccccc3)OC2=O)ccn1` (stereo not drawn) [Example 76, N-(4-(2-oxo-5-phenyl-1,3-oxazolidin-3-yl)pyridin-2-yl)-3-(pyridin-2-yl)propanamide], the IC50 amounted to 160 nM.
Consider `O=C(NCc1ccccn1)Nc1cc(N2CC3(CCCCC3)CC2=O)ccn1` [Example 54, N-(4-(3-oxo-2-azaspiro[4.5]dec-2-yl)pyridin-2-yl)-N′-(pyridin-2-ylmethyl)urea], for which the IC50 is below 100 nM.
As for `O=C(CCc1cccnc1)Nc1cc(N2CC(c3ccccc3)OC2=O)ccn1` (stereo not drawn) [Example 77, N-(4-(2-oxo-5-phenyl-1,3-oxazolidin-3-yl)pyridin-2-yl)-3-(pyridin-3-yl)propanamide], the 50% inhibitory concentration (IC50) is 190 nM.
Then `O=C(NCc1ccccn1)Nc1cc(NC(=O)c2ccccc2)ccn1` [Example 69, N-(2-(((pyridin-2-ylmethyl)carbamoyl)amino)pyridin-4-yl)benzamide], with below 100 nM; and `CC1(C)C(=O)N(c2ccnc(NC(=O)NCc3ccccn3)c2)c2ccccc21` [Example 58, N-(4-(3,3-dimethyl-2-oxo-2,3-dihydro-1H-indol-1-yl)pyridin-2-yl)-N′-((pyridin-2-yl)methyl)urea], with below 100 nM.
Consider `O=C(NCc1ccccn1)Nc1cc(N2CC(Cc3ccccc3)CC2=O)ccn1` (stereo not drawn) [Example 34, N-(4-(4-benzyl-2-oxopyrrolidin-1-yl)pyridin-2-yl)-N′-((pyridin-2-yl)methyl)urea], for which the IC50 is below 100 nM.
In the case of `O=C(NCc1ccccn1)Nc1cc(-n2c(=O)oc3ccccc32)ccn1` [Example 64, N-(4-(2-oxo-1,3-benzoxazol-3(2H)-yl)pyridin-2-yl)-N′-(pyridin-2-ylmethyl)urea], the IC50 is below 100 nM.
Take `O=C(CCc1nc2ccccc2s1)Nc1cc(N2CC(c3ccccc3)OC2=O)ccn1` (stereo not drawn) [Example 78, 3-(1,3-benzothiazol-2-yl)-N-(4-(2-oxo-5-phenyl-1,3-oxazolidin-3-yl)pyridin-2-yl)propanamide]: the IC50 is below 100 nM.
Then `Cn1c(=O)n(-c2ccnc(NC(=O)NCc3ccccn3)c2)c2ccccc21` [Example 61, N-(4-(3-methyl-2-oxo-2,3-dihydro-1H-benzimidazol-1-yl)pyridin-2-yl)-N′-(pyridin-2-ylmethyl)urea], with below 100 nM; and `O=C(NCc1ccccn1)Nc1cc(N2CC(c3ccccc3)OC2=O)ccn1` (stereo not drawn) [Example 42, N-(4-(2-oxo-5-phenyl-1,3-oxazolidin-3-yl)pyridin-2-yl)-N′-(pyridin-2-ylmethyl)urea], with below 100 nM.
For the compound `O=C(NCc1ccccn1)Nc1cc(N2CC(c3cccc(C(F)(F)F)c3)CC2=O)ccn1` (stereo not drawn) [Example 25, N-(4-(2-oxo-4-(3-(trifluoromethyl)phenyl)pyrrolidin-1-yl)pyridin-2-yl)-N′-(pyridin-2-ylmethyl)urea], the IC50 was found to be 100 nM.
Regarding `O=C(NCc1ccccn1)Nc1cc(N2CC(CCc3ccccc3)CC2=O)ccn1` (stereo not drawn) [Example 37, N-(4-(2-oxo-4-(2-phenylethyl)pyrrolidin-1-yl)pyridin-2-yl)-N′-(pyridin-2-ylmethyl)urea], the half-maximal inhibitory concentration (IC50) was below 100 nM.
As to `O=C(Cc1cccs1)Nc1cc(N2CC(c3ccccc3)OC2=O)ccn1` (stereo not drawn) [Example 79, N-(4-(2-oxo-5-phenyl-1,3-oxazolidin-3-yl)pyridin-2-yl)-2-(2-thienyl)acetamide], the half-inhibitory concentration (IC50) was 230 nM.
Take `Cc1ccc2oc(=O)n(-c3ccnc(NC(=O)NCc4ccccn4)c3)c2c1` [Example 66, N-(4-(5-methyl-2-oxo-1,3-benzoxazol-3(2H)-yl)pyridin-2-yl)-N′-(pyridin-2-ylmethyl) urea]: the IC50 is below 100 nM.
On to `COc1ccc(C2CC(=O)N(c3ccnc(NC(=O)NCc4ccccn4)c3)C2)cc1` (stereo not drawn) [Example 21, N-(4-(4-(4-methoxyphenyl)-2-oxopyrrolidin-1-yl)pyridin-2-yl)-N′-(pyridin-2-ylmethyl)urea], for which the IC50 worked out at 120 nM.
Turning to `O=C(NCc1ccccn1)Nc1cc(N2CC(c3cccc(F)c3)CC2=O)ccn1` (stereo not drawn) [Example 29, N-(4-(4-(3-fluorophenyl)-2-oxopyrrolidin-1-yl)pyridin-2-yl)-N′-(pyridin-2-ylmethyl)urea], the half-maximal inhibitory concentration (IC50) came out at 100 nM.
For the compound `O=C(NCc1ccccn1)Nc1cc(-n2cc(-c3ccccc3)oc2=O)ccn1` [Example 47, N-(4-(2-oxo-5-phenyl-1,3-oxazol-3(2H)-yl)pyridin-2-yl)-N′-(pyridin-2-ylmethyl)urea], the IC50 was below 100 nM.
As for `O=C(NCc1ccc2c(c1)OCO2)Nc1cc(N2CC(c3ccccc3)CC2=O)ccn1` (stereo not drawn) [Example 13, N-(1,3-benzodioxol-5-ylmethyl)-N′-(4-(2-oxo-4-phenylpyrrolidin-1-yl)pyridin-2-yl)urea], the IC50 worked out at 280 nM.
Regarding `CC1CCN(c2ccnc(NC(=O)NCc3ccccn3)c2)C1=O` (stereo not drawn) [Example 51, N-(4-(3-methyl-2-oxopyrrolidin-1-yl)pyridin-2-yl)-N′-((pyridin-2-yl)methyl)urea], the IC50 is below 100 nM.
For `O=C(NCc1ccccn1)Nc1cc(N2CC(c3cccs3)OC2=O)ccn1` (stereo not drawn) [Example 48, N-(4-(2-oxo-5-(2-thienyl)-1,3-oxazolidin-3-yl)pyridin-2-yl)-N′-(pyridin-2-ylmethyl)urea], the IC50 was below 100 nM.
In the case of `O=C(NCc1ccccn1)Nc1cc(N2CC(COc3ccccc3)OC2=O)ccn1` (stereo not drawn) [Example 45, N-(4-(2-oxo-5-(phenoxymethyl)-1,3-oxazolidin-3-yl)pyridin-2-yl)-N′-(pyridin-2-ylmethyl)urea], the IC50 was below 100 nM.
`O=C(NCc1ccccn1)Nc1cc(N2CC(COCc3ccccc3)OC2=O)ccn1` (stereo not drawn) [Example 46, N-(4-(5-((benzyloxy)methyl)-2-oxo-1,3-oxazolidin-3-yl)pyridin-2-yl)-N′-(pyridin-2-ylmethyl)urea]: the IC50 is below 100 nM.
Turning to `CC1CCC(=O)N1c1ccnc(NC(=O)NCc2ccccn2)c1` (stereo not drawn) [Example 53, N-(4-(2-methyl-5-oxopyrrolidin-1-yl)pyridin-2-yl)-N′-((pyridin-2-yl)methyl)urea], the half-maximal inhibitory concentration (IC50) amounted to 100 nM.
Regarding `O=C(NCc1ccccn1)Nc1cc(N2CC(CCc3ccccc3)OC2=O)ccn1` (stereo not drawn) [Example 44, N-(4-(2-oxo-5-(2-phenylethyl)-1,3-oxazolidin-3-yl)pyridin-2-yl)-N′-(pyridin-2-ylmethyl)urea], the IC50 is below 100 nM.
On to `O=C(NCc1ccccn1)Nc1cc(N2CC(Cc3ccccc3)OC2=O)ccn1` (stereo not drawn) [Example 43, N-(4-(5-benzyl-2-oxo-1,3-oxazolidin-3-yl)pyridin-2-yl)-N′-(pyridin-2-ylmethyl)urea], for which the IC50 is below 100 nM.
